Values of other authors, collected in patent publication US20080015223A1, “Pyrazole Derivatives as Modulators of the 5-Ht2a Serotonin Receptor Useful for the Treatment of Disorders Related Thereto” (Arena Pharmaceuticals, Inc., priority 2004, published 2008).

Key:
[1] = tested on: rats
[2] = tested on: spontaneously hypertensive rats
[3] = tested on: JC virus
[4] = 24 months of treatment, patients
[5] = glaucoma patients
[6] = tested on: rats; remark: listed apart in the source
[7] = humans, lumbar disc herniation

## CN1CCN2c3ccccc3Cc3ccccc3C2C1 (stereo not drawn) [Mainserin]
[1]
  DOCA-salt induced hypertension: prevent

## O=C(c1ccc(F)cc1)C1CCN(CCn2c(=O)[nH]c3ccccc3c2=O)CC1 [ketanserin]
[2]
  blood pressure: stabilize
[3]
  JC virus infection of human glial cells: inhibited

## Cc1nc2sccn2c(=O)c1CCN1CCC(=C(c2ccc(F)cc2)c2ccc(F)cc2)CC1 [ritanserin]
[3]
  JC virus infection of human glial cells: inhibited

## COc1cccc(CCc2ccccc2OCC(CN(C)C)OC(=O)CCC(=O)O)c1 (stereo not drawn) [sarpogrelate]
[4]
  urinary albumin excretion level: significantly reduced
[5]
  IOP: significantly lower
[6]; intraperitoneal administration
  analgesic effect on thermal induced pain: significant analgesic effect
[6]; intrathecal or intraperitoneal administration
  analgesic effect on inflammatory pain: significant analgesic effect
[7]
  treatment for lower back pain, leg pain and numbness associated with sciatica: effective treatment
